Assay results reported in patent publication US9045531B2, “HLA-binding peptide, precursor thereof, and DNA fragment and recombinant vector coding for said HLA-binding peptide” (NEC CORPORATION, priority 2006, dated 2015).
No end group written: not given here.

Tests used:
[1] = system: human HLA-A type molecule; test: Binding experiments, summary statement for HLA-A type molecules; details: summary of the binding experiments
Description: The ability of a peptide to bind to an HLA-A2 molecule, which is a product of the HLA-A*0201 gene, was measured using strain JY cells (obtained from ATCC (American Type Culture Collection)) expressing the HLA-A*0201.
The ability of a peptide to bind to an HLA-A2 molecule, which is a product of the HLA-A*0206 gene, was measured using RA2.6 cells (cell strain newly prepared in Kochi University) in which cDNA of the HLA-A*0206 gene is expressed in RAMS cells, which are mouse TAP peptide transporter deficient cells.

[2] = system: HLA-A24 molecule (product of the HLA-A*2402 gene); test: Experiment of binding peptide to HLA-A2402 molecule (C1R-A24 cells, flow cytometry); design: species or system human; details: HLA-A24 (HLA-A*2402)
Description: The ability of a peptide to bind to an HLA-A24 molecule, which is a product of the HLA-A*2402 gene, was measured using C1R-A24 cells expressing the HLA-A24 gene (cells produced by Professor Masafumi Takiguchi, Kumamoto University being supplied with permission).
After neutralization, purified β2m was added to C1R-A24 cells, the obtained product was added to serial dilutions of a peptide, and incubated on ice for 4 hours.
Subsequently, the MHC-pep count per C1R-A24 cell (proportional to the strength of fluorescence of the above-mentioned fluorescent antibody) was quantitatively measured using a FACScan fluorescence-activated cell sorter (Becton Dickinson Biosciences). A binding dissociation constant Kd value between the HLA-A24 molecule and the peptide was calculated from the average strength of fluorescence per cell by a published method (Udaka et al., Immunogenetics, 51, 816-828, 2000).

Sequence | binding to a human HLA-A type molecule (result in words) [1] | Binding Experiment Data (−log Kd value) [2]
ATNPIVPSF [SEQ ID NO: 6] | experimentally confirmed to bind | 7.564
ATNPVVPSF [SEQ ID NO: 7] | experimentally confirmed to bind | 7.808
ATSPIVPSF [SEQ ID NO: 9] | experimentally confirmed to bind | 7.802
DMNNEGSYF [SEQ ID NO: 18] | experimentally confirmed to bind | 5.374
DMSNEGSYF [SEQ ID NO: 16] | experimentally confirmed to bind | –
FQGRGVFEL [SEQ ID NO: 48] | experimentally confirmed to bind | –
GQISVQPTF [SEQ ID NO: 5] | experimentally confirmed to bind | 7.191
IFLARSALI [SEQ ID NO: 4] | experimentally confirmed to bind | 8.012
IYKRRDGKW [SEQ ID NO: 17] | experimentally confirmed to bind | 7.326
IYKRREGKW [SEQ ID NO: 13] | experimentally confirmed to bind | 7.25
IYRRRDGKW [SEQ ID NO: 10] | experimentally confirmed to bind | 7.497
LIFLARSAL [SEQ ID NO: 52, LIFLARSAL] | experimentally confirmed to bind | –
LILYDKEEI [SEQ ID NO: 51] | experimentally confirmed to bind | –
LQNSQVFSL [SEQ ID NO: 49] | experimentally confirmed to bind | –
NLPFERATI [SEQ ID NO: 8] | – | 7.764
NLPFERATI [SEQ ID NO: 25] | experimentally confirmed to bind | –
RLIQNSITI [SEQ ID NO: 3] | experimentally confirmed to bind | –
RLLQNSQVF [SEQ ID NO: 2] | experimentally confirmed to bind | 6.915
RMVGGIGRF [SEQ ID NO: 14] | experimentally confirmed to bind | 7.543
RMVSGIGRF [SEQ ID NO: 15] | experimentally confirmed to bind | 7.436
SLPFERATI [SEQ ID NO: 11] | experimentally confirmed to bind | 7.719
VGIDPFRLL [SEQ ID NO: 12] | experimentally confirmed to bind | 5.12
WMACHSAAF [SEQ ID NO: 1] | experimentally confirmed to bind | –
YLEEHPSAG [SEQ ID NO: 21] | experimentally confirmed to bind | –
YLEENPSAG [SEQ ID NO: 26] | experimentally confirmed to bind | –
